Results on twelve compounds are retold here after PubChem BioAssay (NCI).

Molecules are shown by their SMILES.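 Cells were grown in 96-well plates and exposed to each compound for 48 hours at five concentrations; endpoints were interpolated linearly between bracketing concentrations, or set to the highest concentration if not reached. Abbreviation: GI50, concentration required for 50% inhibition of growth. TGI: total growth inhibition.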 A value given as a limit tells only on which side of the number the result lay.

Among the test systems are OVCAR-5 ovarian; KM12 colon; HCT-15 colon; RXF 393 renal; OVCAR-8 ovarian; UACC-257 melanoma; MOLT-4 leukemia; LOX IMVI melanoma; A498 renal; SNB-75 CNS.
Common to all, as to assay: DTP human tumour cell line panel, 48 h

By TGI is commonly meant the concentration at which net growth stops. Read a high TGI as less potent growth arrest. A word on the GI50: it is the concentration that inhibits growth by half.

Regarding `O=[N+]([O-])C(=C1c2ccccc2-c2ccccc21)[N+](=O)[O-]`, the TGI is above 100 µM in the experiment on OVCAR-5 ovarian; above 100 µM in the experiment on KM12 colon; above 10 µM in the experiment on HCT-15 colon; above 100 µM in the experiment with RXF 393 renal; above 100 µM in the experiment with OVCAR-8 ovarian; above 100 µM in the experiment with UACC-257 melanoma. For the same compound, the TGI in the experiment on MOLT-4 leukemia, with LOX IMVI melanoma and in the experiment with A498 renal was above 100 µM throughout.
`O=S(=O)([O-])c1ccc(C=Nc2ccccc2)c([O-])c1.O=S(=O)([O-])c1ccc(C=Nc2ccccc2)c([O-])c1.[Co+2]`: the GI50 with OVCAR-5 ovarian was 16.1 µM; in the experiment on KM12 colon, 65.4 µM; in the experiment on HCT-15 colon it was 45.5 µM; in the experiment on RXF 393 renal, above 100 µM; in the experiment with OVCAR-8 ovarian it was 50.6 µM; in the experiment with UACC-257 melanoma, above 100 µM. Further, the results for the GI50 with MOLT-4 leukemia, with LOX IMVI melanoma and with SNB-75 CNS were 7.71 µM, 3.01 µM and above 100 µM, respectively. Besides, the TGI with OVCAR-5 ovarian, in the experiment on KM12 colon, in the experiment with HCT-15 colon, in the experiment with RXF 393 renal, in the experiment on OVCAR-8 ovarian and with UACC-257 melanoma was above 100 µM each time. Further, the TGI in the experiment with MOLT-4 leukemia, in the experiment on LOX IMVI melanoma and in the experiment on SNB-75 CNS was above 100 µM each time.
In the case of `O=S(=O)(c1ccccc1)C1(C2(S(=O)(=O)c3ccccc3)CCN=N2)CCN=N1` (centres undefined), the total growth inhibition concentration (TGI) in the experiment with OVCAR-5 ovarian, in the experiment with KM12 colon, in the experiment with HCT-15 colon, in the experiment with RXF 393 renal, with OVCAR-8 ovarian and in the experiment on UACC-257 melanoma was above 100 µM throughout. The TGI with MOLT-4 leukemia, with LOX IMVI melanoma and with SNB-75 CNS was above 100 µM throughout.
Take `CCOC(=O)CCC(NC(=O)c1ccc(Oc2nc3cc(N)cc(N)c3nc2-c2ccccc2)cc1)C(=O)OCC` (centres undefined): the GI50 was 96.8 µM with OVCAR-5 ovarian; 27.4 µM in the experiment with KM12 colon; 34.3 µM with HCT-15 colon; 43.9 µM in the experiment with RXF 393 renal; 38.2 µM in the experiment with OVCAR-8 ovarian; 26.7 µM with UACC-257 melanoma. For the same compound, the GI50 in the experiment with MOLT-4 leukemia was 39 µM; in the experiment with LOX IMVI melanoma it was 11.9 µM. Besides, the TGI is above 100 µM with OVCAR-5 ovarian; above 100 µM in the experiment on KM12 colon; above 100 µM in the experiment on HCT-15 colon; above 100 µM in the experiment with RXF 393 renal; above 100 µM with OVCAR-8 ovarian; 55.1 µM in the experiment on UACC-257 melanoma. Besides, the TGI in the experiment with MOLT-4 leukemia is above 100 µM; with LOX IMVI melanoma, 26.1 µM.
Regarding `Cc1ccccc1-c1cc(=O)c2cc(C)c(C)c(C(=O)O)c2o1`, the concentration for total growth inhibition (TGI) in the experiment on OVCAR-5 ovarian, with KM12 colon, in the experiment with HCT-15 colon, in the experiment on OVCAR-8 ovarian, in the experiment on UACC-257 melanoma and in the experiment on MOLT-4 leukemia was above 100 µM in each case. Besides, the total growth inhibition concentration (TGI) in the experiment on LOX IMVI melanoma and in the experiment on SNB-75 CNS was above 100 µM in each case.
As to `COc1cc(Br)c(C=Nc2cccc3ccc(OS(=O)(=O)c4ccc([N+](=O)[O-])cc4)cc23)cc1OC`, the TGI in the experiment with OVCAR-5 ovarian, in the experiment on KM12 colon, in the experiment with HCT-15 colon, in the experiment on RXF 393 renal, with OVCAR-8 ovarian and in the experiment with UACC-257 melanoma was above 100 µM throughout. Also, the TGI in the experiment on MOLT-4 leukemia, in the experiment with LOX IMVI melanoma and in the experiment on A498 renal was above 100 µM each time.
Consider `CCOC(=O)c1nc2sc(Cl)cn2c1/C=N/N=C(N)N`, for which the GI50 with OVCAR-5 ovarian is 20.7 µM; with KM12 colon, 18.3 µM; with HCT-15 colon, 26.8 µM; with RXF 393 renal, 18.8 µM; in the experiment on OVCAR-8 ovarian it was 26.9 µM; with UACC-257 melanoma, 35.8 µM. In addition, the GI50 with MOLT-4 leukemia is 22.8 µM; in the experiment with LOX IMVI melanoma, 25.3 µM; in the experiment on SNB-75 CNS, 27.9 µM. The TGI was 49.5 µM in the experiment on OVCAR-5 ovarian; 36.6 µM with KM12 colon; above 75.2 µM in the experiment on HCT-15 colon; above 70.2 µM in the experiment on RXF 393 renal; above 53.8 µM in the experiment on OVCAR-8 ovarian; above 86 µM in the experiment with UACC-257 melanoma. Moreover, the TGI in the experiment with MOLT-4 leukemia was above 100 µM; in the experiment on LOX IMVI melanoma, above 54.6 µM; in the experiment with SNB-75 CNS, 68.8 µM.
Consider `Cc1c(C(=O)Nc2ccc(Oc3ccnc4cc(OCC(C)(C)O)ccc34)c(F)c2)c(=O)n(-c2ccccc2)n1C`, for which the results for the GI50 with KM12 colon, with RXF 393 renal and with SNB-75 CNS were 0.226 µM, 2.72 µM and 2.93 µM, respectively. Further, the TGI with KM12 colon, in the experiment with RXF 393 renal and in the experiment with SNB-75 CNS was above 100 µM throughout.
Regarding `CC[P+](C)(C)CC`, the TGI in the experiment on OVCAR-5 ovarian, with KM12 colon, in the experiment with HCT-15 colon, with RXF 393 renal, in the experiment with OVCAR-8 ovarian and in the experiment on UACC-257 melanoma was above 100 µM in each case. In addition, the TGI with MOLT-4 leukemia, in the experiment with LOX IMVI melanoma and in the experiment with SNB-75 CNS was above 100 µM throughout.
`CC(C)(C)c1ccc(OCCCCCCCN2CCNCC2)cc1`: the GI50 in the experiment with KM12 colon is 1.85 µM; in the experiment with HCT-15 colon it was 1.64 µM; in the experiment with RXF 393 renal, 1.69 µM; with UACC-257 melanoma, 1.98 µM; in the experiment on MOLT-4 leukemia, 1.7 µM; with LOX IMVI melanoma it was 1.52 µM. Also, the GI50 in the experiment on SNB-75 CNS is 1.57 µM. The TGI in the experiment with KM12 colon was determined as 3.6 µM; with HCT-15 colon, 3.38 µM; with RXF 393 renal, 3.37 µM; in the experiment with UACC-257 melanoma it was 3.8 µM; with MOLT-4 leukemia it was 3.71 µM; with LOX IMVI melanoma, 3.06 µM. The TGI in the experiment on SNB-75 CNS amounted to 3.74 µM.
Take `CCOC(=O)C(c1ccsc1)P(=O)(OCC)OCC` (centres undefined): the TGI in the experiment on OVCAR-5 ovarian is 37.7 µM; with KM12 colon, 28.4 µM; in the experiment with HCT-15 colon, 37.4 µM; in the experiment on RXF 393 renal it was 28.9 µM; in the experiment with OVCAR-8 ovarian, 43.3 µM; in the experiment with UACC-257 melanoma, 33.2 µM. In addition, the total growth inhibition concentration (TGI) is above 100 µM in the experiment on MOLT-4 leukemia, 19.3 µM with LOX IMVI melanoma and 43.5 µM in the experiment with SNB-75 CNS.
Consider `O=C(O)CC(CC(=O)O)n1cccc1`, for which the TGI in the experiment on OVCAR-5 ovarian, in the experiment on KM12 colon, in the experiment with HCT-15 colon, in the experiment on RXF 393 renal, with OVCAR-8 ovarian and in the experiment on UACC-257 melanoma was above 100 µM throughout. Besides, the TGI with MOLT-4 leukemia, with LOX IMVI melanoma and in the experiment with A498 renal was above 100 µM in each case.
